Measured values taken from paper PMC8558239, “Interaction Between Florfenicol and Doxycycline Involving Cytochrome P450 3A in Goats (Capra hricus)” (Frontiers in Veterinary Science, 2021).
Read-outs that look alike come from different tables or passages of the source.

What was measured:
[1] = test system: CYP3A24 and its mutants (R105A, R372A, R440A); test: Protein activity verification of CYP3A24 and its mutants with testosterone; conditions: TS 1 μmol/L, 60 min
Procedure: Testosterone (TS) is a specific substrate of CYP3A, which can generate 6β-OHTS under the action of CYP3A ([21]). In order to study the protein activity of CYP3A24 and its mutants, we incubated each protein with TS. The experimental steps were as follows: protein (0.5 mg/mL) and NADPH (1 mmol/L) were added to PBS (pH 7.4) for 10 min at 37°C, then TS (Dr. Ehrenstorfer GmbH, Germany, 1 μmol/L) was added to start the reaction. The total reaction volume was 200 μL. At 60 min after drug addition, 200 μL of ice-cold acetonitrile was added to terminate the reaction. After centrifugation at 12,000 g/min for 15 min, the supernatant was filtered through a 0.22 μm membrane and analyzed by LC-MS/MS (AB SCIEX API5000, USA). For TS and 6β-OHTS, chromatographic separation occurred using a Thermo Scientific Hypersil Gold C18 column (150 × 2.1 mm, 5 μm particles), and analytes were detected on an API5000 mass analyser. Mobile phase A was 0.1% formic acid in water, and mobile phase B was methanol. The flow rate was 0.2 mL/min with a linear gradient under the following conditions: 0–0.10 min 5–85% B, 0.10–4.10 min 85% B, 4.10–8.00 min 85–5% B. The injection volume was set to 10 μL.

[2] = test system: CYP3A24; test: Incubation of recombinant CYP3A24 with FF and DOX (FFA production); format: in vitro ADME, goat; conditions: FF incubated with CYP3A24
[3] = test system: CYP3A24 R372A; conditions: mutant R372A
[4] = test system: CYP3A24 gene; test: Gene expression of CYP3A24 in goat liver (qPCR); format: in vivo, goats
Procedure: Throughout the experiment, all goats had ad libitum access to feed and water without antibiotics. The goats were divided into three groups, namely the control group (6 animals), the single group (24 animals), and the combined group (24 animals). The control group was fed without medication. In the single group, FF (Zhonglongshenli Animal Pharmaceutical Co., Ltd. Hefei, China, specification: 10 mL: 1 g) was injected into the neck muscles at 48 h intervals, twice in total. In the combined group, FF was injected into the neck muscles at 48 h intervals, twice in total, and DOX-hyclate (Zhonglongshenli Animal Pharmaceutical Co., Ltd. Hefei, China, specification: 10 mL: 1 g) was injected into the neck muscles, once a day for 3 days. The volume of the treatment solution was calculated individually for each goat to provide a dose equivalent to 20 mg FF/kg bw and 10 mg DOX/kg bw. […]
Real-time quantitative polymerase chain reaction (qPCR) was used to detect the expression of CYP3A24 in treated goats. […] The concentration and purity of RNA was detected by Q3000 (Thermo, USA). […] The data were analyzed by the 2^ΔΔCt method.

[5] = test system: CYP3A24 R440A; conditions: mutant R440A
[6] = Tissue residue depletion in goats (LC-MS/MS); format: in vivo, goats (Capra hircus); conditions: both sexes, Boaer-cross, intramuscular, i.m., mean ± SD, 4 goats; for concentration at 0.5 days: 0.5 days after last dose; for concentration at 1 day: 1 day after last dose
Procedure: In this study, a total of 54 Boaer-cross goats (Capra hircus) of both sexes, about 8 months old, were selected, weighing 28–36 kg. During the 1st week of acclimatization, all animals were raised in the usual way, with free access to feed and water. The experiment was conducted in accordance with the Guidelines for the Care and Use of Laboratory Animals issued by HZAU and approved by the Ethics Committee of Veterinary College of HZAU.
Throughout the experiment, all goats had ad libitum access to feed and water without antibiotics. The goats were divided into three groups, namely the control group (6 animals), the single group (24 animals), and the combined group (24 animals). The control group was fed without medication. In the single group, FF (Zhonglongshenli Animal Pharmaceutical Co., Ltd. Hefei, China, specification: 10 mL: 1 g) was injected into the neck muscles at 48 h intervals, twice in total. In the combined group, FF was injected into the neck muscles at 48 h intervals, twice in total, and DOX-hyclate (Zhonglongshenli Animal Pharmaceutical Co., Ltd. Hefei, China, specification: 10 mL: 1 g) was injected into the neck muscles, once a day for 3 days. The volume of the treatment solution was calculated individually for each goat to provide a dose equivalent to 20 mg FF/kg bw and 10 mg DOX/kg bw.
Goats of the single group (treated with FF) and goats of the combined group (treated with FF and DOX) were euthanized as previously described at 0.5 (n = 4), 1 (n = 4), 3 (n = 4), 7 (n = 4), 14 (n = 4), and 21 days (n = 4) after the last dose of 20 mg FF/kg bw (single group) and after the last dose of 20 mg FF/kg bw plus 10 mg DOX/kg bw (combined group). Goats were immediately exsanguinated, and tissue specimens of liver, kidney and muscle were collected separately. Each of the tissue specimens was carefully weighed and stored frozen at −20°C until assayed for concentrations of FF and FFA.
The method of FF and FFA pre-processing in the target tissues was as follows: Tissue samples weighing 1.00 ± 0.01 g were placed in a 10 mL centrifuge tube, then 5 mL 2% ammoniated ethyl acetate was added, and the tube was vortexed, sonicated and centrifuged. The above steps were repeated, and the supernatants were pooled and dried under a stream of nitrogen. The residue was reconstituted in 5% acetic acid in water, vortexed and passed through an MCX solid-phase extraction column (the order of the column was methanol, water, sample, 5% acetic acid water and 8% ammoniated ethyl acetate), then the eluate was dried under nitrogen, re-dissolved in 2 mL of degreased n-hexane, passed through a 0.22 μm filter membrane and subjected to LC-MS/MS (AB SCIEX API5000, USA) analysis.
All inter-assay coefficients of variation in each tissue were within 9.93%, the intra-assay coefficients of variation in each tissue were within 11.08%, and the recovery rates in each tissue were between 70.62 and 113.55%. […] For FF and FFA, the LOQ of the analysis was 10 μg/kg, and the LOD of the analysis was 2 μg/kg. The peak times of FFA and FF were 1.80 and 6.05, respectively (Figure 1).

[7] = goat, 20 mg/kg bw, kidney, read-out: Tissue concentration FF
[8] = goat, 20 mg/kg bw, liver, read-out: Tissue concentration FF
[9] = goat, 20 mg/kg bw, muscle, read-out: Tissue concentration FF

For `C[C@]12CC[C@H]3[C@@H](CCC4=CC(=O)CC[C@@]43C)[C@@H]1CC[C@@H]2O` [TS, Testosterone], the “metabolism of TS into 6β-OHTS” value [1] was “could metabolize TS”.
With `C[C@H]1c2cccc(O)c2C(=O)C2=C(O)[C@]3(O)C(=O)C(C(N)=O)=C(O)[C@@H](N(C)C)[C@@H]3[C@@H](O)[C@@H]21` [DOX, α-6-deoxy-5-hydroxytetracycline] the “reduction of FFA production on addition of DOX” value [2] was 17.8%.
For `CS(=O)(=O)c1ccc([C@@H](O)[C@@H](CF)NC(=O)C(Cl)Cl)cc1` [FF], the “reduction of FF metabolism (FFA production) vs CYP3A24” value [3] was 32.9%, the “up-regulation of CYP3A24 gene expression compared to control” value ([4]; 1 day after treatment stopped) was “about 2.3 fold” and the “up-regulation of CYP3A24 gene expression compared to control” value ([4]; 3 days after treatment stopped) was roughly 3 fold. For the same compound, the “reduction of FF metabolism (FFA production) vs CYP3A24” value [5] was 65.8%, the concentration at 3 days after last dose ([6]; goat (Capra hircus), 20 mg FF/kg bw, liver, 3 days after last dose) was 936 ± 148 ng/g and the concentration at 7 days after last dose ([6]; goat (Capra hircus), 20 mg FF/kg bw, liver, 7 days after last dose) was 338 ± 126 ng/g. It also gave a concentration at 14 days after last dose ([6]; goat (Capra hircus), 20 mg FF/kg bw, liver, 14 days after last dose) of 179 ± 26.5 ng/g, a concentration at 21 days after last dose ([6]; goat (Capra hircus), 20 mg FF/kg bw, liver, 21 days after last dose) of 44.5 ± 17.6 ng/g and a concentration at 0.5 days [6, 7] of 2260 ± 203 ng/g. For the same compound, the concentration at 1 day [6, 7] was 1770 ± 142 ng/g, the concentration at 3 days ([6]; goat, 20 mg/kg bw, kidney, 3 days after last dose, read-out: Tissue concentration FF) was 843 ± 124 ng/g and the concentration at 7 days ([6]; goat, 20 mg/kg bw, kidney, 7 days after last dose, read-out: Tissue concentration FF) was 327 ± 43.4 ng/g. It also gave a concentration at 14 days ([6]; goat, 20 mg/kg bw, kidney, 14 days after last dose, read-out: Tissue concentration FF) of 131 ± 17.1 ng/g, a concentration at 21 days ([6]; goat, 20 mg/kg bw, kidney, 21 days after last dose, read-out: Tissue concentration FF) of 37.5 ± 8.6 ng/g and a concentration at 0.5 days [6, 8] of 2790 ± 257 ng/g. For the same compound, the concentration at 1 day [6, 8] was 2050 ± 310 ng/g, the concentration at 0.5 days [6, 9] was 1760 ± 201 ng/g and the concentration at 1 day [6, 9] was 858 ± 43.2 ng/g. The concentration at 3 days ([6]; goat, 20 mg/kg bw, muscle, 3 days after last dose, read-out: Tissue concentration FF) was 376 ± 58.1 ng/g, the concentration at 7 days ([6]; goat, 20 mg/kg bw, muscle, 7 days after last dose, read-out: Tissue concentration FF) was 162 ± 4.6 ng/g and the concentration at 14 days ([6]; goat, 20 mg/kg bw, muscle, 14 days after last dose, read-out: Tissue concentration FF) was 48.6 ± 7.6 ng/g.
